Earlier results as cited in patent US11198893B2, “Method for producing omega 3 and omega 6 unsaturated fatty acid oxides” (Bizen Chemical Co., Ltd., priority 2016, dated 2021).

SMILES | glucose tolerance and insulin resistance (obese mice) | inflammatory cytokine expression (obese mice) | glycometabolism (liver glucose synthesis) | liver glucose synthesis (liver glucose synthesis)
CC/C=C\C[C@H](O)/C=C/C=C\C/C=C\C/C=C\C/C=C\CCC(=O)O [17S-HDHA] | improve glucose tolerance and insulin resistance | suppresses inflammatory cytokine expression | – | –
CC/C=C\C[C@H](O)/C=C/C=C\C=C\[C@@H](O)C/C=C\C/C=C\CCC(=O)O [protectin DX] | – | – | action to promote glycometabolism | action to suppress liver glucose synthesis
